Assays:
soybean = experiment: Test E postemergence; type: in vivo, Glycine max
From the text: (§1) Seeds of plant species selected from corn (Zea mays), soybean (Glycine max), velvetleaf (Abutilon theophrasti), lambsquarters (Chenopodium album), wild poinsettia (Euphorbia heterophylla), palmer pigweed (Amaranthus palmeri), waterhemp (common waterhemp, Amaranthus rudis), surinam grass (Brachiaria decumbens), large (Lg) crabgrass (Digitaria sanguinalis), Brazilian crabgrass (Digitaria horizontalis), fall panicum (Panicum dichotomiflorum), giant foxtail (Setaria faberii), green foxtail (Setaria viridis), goosegrass (Eleusine indica), johnsongrass (Sorghum halepense), ragweed (common ragweed, Ambrosia elatior), barnyardgrass (Echinochloa crus-galli), sandbur (southern sandbur, Cenchrus echinatus), arrowleaf sida (Sida rhombifolia), Italian ryegrass (Lolium multiflorum), dayflower (Virginia (VA) dayflower, Commelina virginica), field bindweed (Convolvulus arvensis), morningglory (Ipomoea coccinea), nightshade (eastern black nightshade, Solanum ptycanthum), kochia (Kochia scoparia), yellow nutsedge (Cyperus esculentus), cocklebur (common cocklebur, Xanthium strumarium), smartweed (ladysthumb smartweed, and hairy beggarticks (Bidens pilosa), were planted into a silt loam soil and treated preemergence with test chemicals formulated in a non-phytotoxic solvent mixture which included a surfactant.
(§2) At the same time, plants from these crop and weed species and also horseweed (Canada horseweed, Conyza canadensis), waterhemp_RES1, (ALS & Triazine resistant common waterhemp, Amaranthus rudis), and waterhemp_RES2, (ALS & HPPD resistant common waterhemp, Amaranthus rudis) were planted in pots containing Redi-Earth® planting medium (Scotts Company, 14111 Scottslawn Road, Marysville, Ohio 43041) comprising spaghnum peat moss, vermiculite, wetting agent and starter nutrients were treated with postemergence applications of test chemicals formulated in the same manner. Plants ranged in height from 2 to 18 cm for postemergence treatments (1- to 4-leaf stage). Treated plants and controls were maintained in a greenhouse for 14 to 21 days, after which time all species were compared to controls and visually evaluated. Plant response ratings, summarized in Table E, are based on a scale of 0 to 100 where 0 is no effect and 100 is complete control. A dash (-) response means no test result.

fall panicum = experiment: Test E postemergence; type: in vivo, Panicum dichotomiflorum
From the text: as §1, §2

corn = experiment: Test E preemergence; type: in vivo, Zea mays; conditions: for Corn plant response rating: scale 0 to 100 (0 no effect, 100 complete control)
From the text: as §1, §2

arrowleaf sida = experiment: Test E preemergence; type: in vivo, Sida rhombifolia; conditions: for Arrowleaf Sida plant response rating: scale 0 to 100 (0 no effect, 100 complete control)
From the text: as §1, §2

kochia = experiment: Test E preemergence; type: in vivo, Kochia scoparia; conditions: for Kochia plant response rating: scale 0 to 100 (0 no effect, 100 complete control)
From the text: as §1, §2

[1] = 125 g ai/ha, scale 0 to 100, 0 no effect, 100 complete control
[2] = 250 g ai/ha, scale 0 to 100, 0 no effect, 100 complete control
[3] = Preemergence, 62 g ai/ha, scale 0 to 100, 0 no effect, 100 complete control
[4] = preemergence, 125 g ai/ha, scale 0 to 100, 0 no effect, 100 complete control
[5] = preemergence, 250 g ai/ha, scale 0 to 100, 0 no effect, 100 complete control
[6] = Postemergence, 62 g ai/ha, scale 0 to 100
[7] = Postemergence, 125 g ai/ha, scale 0 to 100
[8] = 8 g ai/ha, scale 0 to 100, 0 is no effect, 100 is complete control
[9] = 8 g ai/ha, preemergence, scale 0 to 100, 0 is no effect, 100 is complete control
[10] = Postemergence, 31 g ai/ha, scale 0 to 100
[11] = postemergence, 16 g ai/ha, scale 0 to 100, 0 no effect, 100 complete control
[12] = postemergence, 8 g ai/ha, scale 0 to 100, 0 no effect, 100 complete control
[13] = Postemergence, 250 g ai/ha, scale 0 to 100

Compound	Corn plant response rating (corn; 16 g ai/ha)	Corn plant response rating (corn; 31 g ai/ha)	Corn plant response rating (corn; 62 g ai/ha)	Plant response rating, Corn (corn; [1])	Arrowleaf Sida plant response rating (arrowleaf sida; 16 g ai/ha, preemergence)	Arrowleaf Sida plant response rating (arrowleaf sida; 31 g ai/ha, preemergence)	Plant response rating, Arrowleaf Sida (arrowleaf sida; [4])	Kochia plant response rating (kochia; 31 g ai/ha)	Kochia plant response rating (kochia; 62 g ai/ha)	Plant response rating, Kochia (kochia; [1])	Plant response rating, Soybean (soybean; [6])	Plant response rating, Soybean (soybean; [7])	Plant response rating, Panicum, Fall (fall panicum; [6])	Plant response rating, Panicum, Fall (fall panicum; [7])	Arrowleaf Sida plant response rating (arrowleaf sida; 62 g ai/ha, preemergence)	Plant response rating, Soybean (soybean; [10])	Plant response rating, Soybean (soybean; [11])	Plant response rating, Panicum, Fall (fall panicum; [10])	Plant response rating, Panicum, Fall (fall panicum; [11])	other results
Clc1cnn(-c2ccccc2Oc2ncc(Br)cn2)c1 [Compound 5, 5-bromo-2-[2-(4-chloro-1H-pyrazol-1-yl)phenoxy]pyrimidine]	–	–	–	–	–	–	–	–	–	–	–	–	–	–	–	–	–	–	–	plant response (crop injury) rating, soybean, 0-100 scale at 31 g/ha (soybean; Glycine max, post-emergence, Postemergence, 31 g ai/ha, scale 0 to 100): 30%; plant response (crop injury) rating, soybean, 0-100 scale at 62 g/ha (soybean; Glycine max, post-emergence, Postemergence, 62 g ai/ha, scale 0 to 100): 70%; plant response (crop injury) rating, soybean, 0-100 scale at 125 g/ha (soybean; Glycine max, post-emergence, Postemergence, 125 g ai/ha, scale 0 to 100): 80%; plant response (crop injury) rating, soybean, 0-100 scale at 250 g/ha (soybean; Glycine max, post-emergence, Postemergence, 250 g ai/ha, scale 0 to 100): 95%; plant response (crop injury) rating, soybean, 0-100 scale at 16 g/ha (soybean; Glycine max, post-emergence, postemergence, 16 g ai/ha, scale 0 to 100, 0 no effect, 100 complete control): 20%; pest or weed control at 62 g/ha (fall panicum; Panicum dichotomiflorum, post-emergence, Postemergence, 62 g ai/ha, scale 0 to 100, read-out: Plant response rating, Panicum, Fall): 0%; pest or weed control at 125 g/ha (fall panicum; Panicum dichotomiflorum, post-emergence, Postemergence, 125 g ai/ha, scale 0 to 100, read-out: Plant response rating, Panicum, Fall): 0%; pest or weed control at 250 g/ha (fall panicum; Panicum dichotomiflorum, post-emergence, Postemergence, 250 g ai/ha, scale 0 to 100, read-out: Plant response rating, Panicum, Fall): 0%; pest or weed control at 16 g/ha (fall panicum; Panicum dichotomiflorum, post-emergence, postemergence, 16 g ai/ha, scale 0 to 100, 0 no effect, 100 complete control, read-out: Plant response rating, Panicum, Fall): 0%
N#Cc1cccc(Oc2ncc(Cl)cn2)c1-n1cc(Cl)cn1 [Compound 72]	0	0	0	0	20	40	100	75	98	100	95	95	10	10	–	–	–	–	–	Plant response rating, Corn (corn; [2]): 0; Plant response rating, Arrowleaf Sida (arrowleaf sida; [3]): 40; Plant response rating, Arrowleaf Sida (arrowleaf sida; [5]): 100; Kochia plant response rating (kochia; 16 g ai/ha): 10; Plant response rating, Kochia (kochia; [2]): 100
Cc1cnc(Oc2cccc(C#N)c2-n2cc(C#N)cn2)nc1 [Compound 90]	0	0	0	0	20	50	90	50	100	100	–	–	–	–	–	–	–	–	–	Plant response rating, Arrowleaf Sida (arrowleaf sida; [3]): 75; Kochia plant response rating (kochia; 16 g ai/ha): 0
Fc1cnc(Oc2cccc(C(F)F)c2-n2cc(C(F)(F)F)cn2)nc1 [Compound 164]	0	0	0	0	40	100	100	0	75	100	–	–	–	–	100	–	–	–	–	–
FC(F)c1cccc(Oc2ncc(Cl)cn2)c1-n1cc(C(F)(F)F)cn1 [Compound 170]	0	20	10	30	0	10	100	30	90	98	–	–	–	–	90	–	–	–	–	Plant response rating, Corn (corn; [8]): 0; Plant response rating, Arrowleaf Sida (arrowleaf sida; [9]): 0; Plant response rating, Kochia (kochia; [8]): 0
Cc1cnc(Oc2cccc(C#N)c2-n2cc(C(F)(F)F)cn2)nc1 [Compound 180]	–	0	15	40	–	15	70	0	20	100	–	–	–	–	30	–	–	–	–	Plant response rating, Corn (corn; [2]): 65; Plant response rating, Arrowleaf Sida (arrowleaf sida; [5]): 85; Plant response rating, Kochia (kochia; [2]): 100
Clc1cnc(Oc2cccc(Cl)c2-n2cc(I)cn2)nc1 [Compound 181]	–	–	–	–	–	–	–	–	–	–	90	95	50	30	–	80	50	20	20	–
FC(F)(F)c1cnn(-c2c(Br)cccc2Oc2ncc(Cl)cn2)c1 [Compound 191]	–	–	–	–	–	–	–	–	–	–	50	95	10	20	–	60	30	5	0	Plant response rating, Soybean (soybean; [12]): 20; Plant response rating, Panicum, Fall (fall panicum; [12]): 0
N#Cc1cnn(-c2c(C#N)cccc2Oc2ncc(Cl)cn2)c1 [Compound 200]	0	5	30	30	20	20	100	60	95	100	95	95	20	50	70	95	95	10	10	Plant response rating, Corn (corn; [2]): 75; Plant response rating, Arrowleaf Sida (arrowleaf sida; [5]): 100; Plant response rating, Kochia (kochia; [2]): 100; Plant response rating, Soybean (soybean; [13]): 98; Plant response rating, Panicum, Fall (fall panicum; [13]): 50
Clc1cnc(Oc2ccccc2-n2cc(Br)nn2)nc1 [Compound 223]	–	–	–	–	–	–	–	–	–	–	98	98	0	0	–	95	60	0	0	Plant response rating, Soybean (soybean; [12]): 30; Plant response rating, Panicum, Fall (fall panicum; [12]): 0
NC(=S)c1cccc(Oc2ncc(Cl)cn2)c1-n1cc(Cl)cn1 [Compound 292]	0	0	0	0	0	5	80	0	70	98	–	–	–	–	5	–	–	–	–	Plant response rating, Corn (corn; [8]): 0; Plant response rating, Arrowleaf Sida (arrowleaf sida; [9]): 0; Plant response rating, Kochia (kochia; [8]): 0
